Results reported in paper PMC8333620, “Novel Tl(III) complexes containing pyridine-2,6-dicarboxylate derivatives with selective anticancer activity through inducing mitochondria-mediated apoptosis in A375 cells” (Scientific Reports, 2021).
Read-outs that look alike come from different tables or passages of the source.

What was measured:
[1] = tested on: A375 (a human melanoma) cell line; test: MTT cytotoxicity assay, A375; format: cell-based; settings: for IC50: read-out: Cytotoxicity (IC50 ± SEM) against A375; for Viability inhibition, A375: concentration not given
Description: (§1) In this study, A375 (a human melanoma), HT29 (a human colon adenocarcinoma), and HFF (a human foreskin fibroblast) cell lines were provided from the Pasteur Institute (Iran). […] 10 mM stock solutions of compounds were prepared in DMSO and diluted in a fresh medium for use. The final concentration of DMSO never exceeded 0.1% (v/v). […] Then the medium was replaced with the respective medium containing ligands or Tl(III) complexes at different concentrations and incubated for 48 h. 10 μL of MTT was added and the medium was removed after 4 h of incubation. Finally, the violet crystal was solubilized in 100 μL DMSO and the absorbance was measured at 570 nm. IC50 value was measured by the standard method. The evaluations were carried out in triplicate[21],[23].

[2] = MTT cytotoxicity assay, HFF; format: cell-based, human; settings: human; MTT, 48 h; read-out: Cytotoxicity (IC50 ± SEM) against HFF
Description: as §1

[3] = tested on: HT29 (a human colon adenocarcinoma) cell line; test: MTT cytotoxicity assay, HT29; format: cell-based; settings: for IC50: read-out: Cytotoxicity (IC50 ± SEM) against HT29
Description: as §1

p53 = test: Western blot, p53 in A375 cells; format: cell-based, human; settings: A375, IC50 concentrations, 24 h
Description: (§2) After incubation with C1 and C3 at IC50 concentrations for 24 h, A375 cells were harvested and lysed in 150 μL of lysis buffer (149 μL RIPA and 1 μL PMSF), and then placed on ice for 15 min. Total proteins were extracted by centrifuging the cell sample at 10,000 rpm and 4 °C for 10 min. Then about 50 μg of purified proteins were mixed with an equal volume of electrophoresis sample buffer, and the mixture was heated for 10 min. Meanwhile, the equal protein content from the control cells was prepared in the same way. The cell sample (10 μL) was loaded onto 10% SDS-PAGE gels and then transferred onto a microporous polyvinylidene difluoride (PVDF) membrane. The membrane was blocked with 5% BSA in TBST buffer for more than 2 h. After the removal of TBST buffer, membranes were incubated with an appropriate dilution of specific primary antibodies in TBST overnight at 4 °C and then washed with TBST three times. The membranes were incubated with secondary antibodies for 1 h and washed with TBST. The immunoreactive signals were detected using an enhanced chemo-luminance kit (Pierce ECL Western Blotting Substrate) following the procedures given in the user manual[46],[63].

A375 cells [4] = test: Cell cycle analysis (PI, flow cytometry), A375; format: cell-based, human; settings: A375, IC50 concentrations, 24 h; with respect to untreated control cells
Description: (§3) A375 cells were seeded in 6-well plates with 1.5 × 10^6 cells /well and treated with the C1 and C3 at IC50 concentrations for 24 h. Cells were trypsinized, collected, and fixed in ice-cold 75% ethanol at − 20 °C overnight. After centrifugation, the fixed cells were rinsed with ice-cold phosphate-buffered saline (PBS) and resuspended in 0.5 mL of PBS containing 100 μg/mL DNase-free RNase A (Thermo Fisher Scientific Biosciences GmbH, St. Leon-Rot, Germany), 50 μg/mL propidium iodide (PI; Sigma Aldrich) in the dark for 30 min. The distribution of the cells in different phases of the cell cycle was determined using flow cytometry (Attune Nxt, Thermo Fisher Scientific-US) and FlowJo software v10.6.1 (https://www.flowjo.com/solutions/flowjo/downloads) was used to analyze the data. This test was performed as explained on HFF cells treatment to C3 (at the highest concentration)[62].

A375 cells [5] = test: Apoptosis by Annexin-V/PI staining; format: cell-based, human; settings: A375, IC50 concentrations, 24 h
Description: Annexin V-FITC and PI staining (Annexin V/PI) apoptosis detection kit were used for assessing the percentage of dead cells by apoptosis pathway. Briefly, A375 cells were treated with C1 and C3 at IC50 concentrations. After 24 h of incubation, cells were washed with PBS, trypsinized, centrifuged, and re-suspended in 100 μL binding buffer at a concentration of 1 × 10^6 cells/mL, then added 5 μL of annexin V-FITC conjugate (30 min), and 5 μL of Propidium Iodide (PI) to each cell suspension (20 min) in the dark. The samples were analyzed using a flow cytometer (Attune Nxt, Thermo Fisher Scientific-US), and the results were assessed using the FlowJo software.

A375 cells [6] = test: Intracellular ROS (H2DCF-DA, flow cytometry), A375; format: cell-based, human; settings: A375, IC50 concentrations, 24 h
Description: (§4) The generation of intracellular ROS was evaluated by reactive oxygen species assay kit. 2 mL of A375 cells (1 × 10^6 cells/mL) were induced with C1–C3 (at IC50 concentrations) at 37 °C for 24 h, serum-free medium washed twice. Then, the cells were incubated in 2 mL of serum-free medium containing H2DCF-DA (2 μM) for 30 min at 37 °C, serum-free medium washed twice. Cells were collected and assayed by flow cytometer with excitation wavelength at 489 nm and emission wavelength at 524 nm, and ten thousand events were collected. The DCF fluorescence peak for this cell sample was evaluated and data were analyzed by FlowJo software. This test was performed as explained on HFF cells treatment to C3 (at the highest concentration)[38].

A375 cells [7] = test: Mitochondrial membrane potential assay (JC-1), A375; format: cell-based, human; settings: A375, IC50 concentrations, JC-1, 24 h
Description: (§5) Mitochondrial membrane potential analysis was determined by fluorescent dye JC-1 staining according to the manufacturer's protocol for the JC-1 assay kit. In brief, 2 mL of A375 cells (1 × 10^5 cells/mL) were treated with IC50 concentrations of C1 and C3 in 6-well plates for […]. Cells were harvested and washed three times with PBS after 24 h of incubation. Then cells were stained with 1 mL of JC-1 stock solution (10 mg/mL). Assays were initiated by incubating A375 cells with JC-1 for 30 min at 37 °C in the dark and detected with a fluorescence microscope. This test was performed as explained on HFF cells treatment to C3 (at the highest concentration).

Bax/Bcl-2 = test: Western blot, Bax/Bcl-2 ratio in A375 cells; format: cell-based, human; settings: A375, IC50 concentrations, 24 h
Description: as §2

[8] = tested on: HFF (a human foreskin fibroblast) cell line; test: MTT cytotoxicity assay, HFF; format: cell-based; settings: MTT, 48 h; read-out: Cytotoxicity (IC50 ± SEM) against HFF
Description: as §1

[9] = Cyclic voltammetry of the complexes; format: physicochemical; settings: versus Ag/AgCl, KCl 0.1 M, GCE, scan rate 50 V/s; for formal potential E0': 4 × 10^–3 mol/dm^3 in H2O; for EA (anodic peak potential) / EC (cathodic peak potential): H2O
Source text: The electrochemical behavior of the complexes and also their ligands was studied by the cyclic voltammograms in the potential range of + 1.5 to –1.5 V and a scan rate of 50 Vs^–1. […] Redox couples at E^0ˊ 0.109, –0.051, and 0.244 V were obtained for C1, C2, and C3, respectively. The electrochemical oxidation of all three complexes seems be a one-stage process which includes irreversible couples with EC = –0.363 V, EA = 0.472 V for C1, EC = –0.271 V, EA = 0.220 V for C2 and EC = –0.337 V, EA = 0.581 V for C3. The peaks can be interpreted according to the Tl(III)/Tl(I) redox system for complexes. […] Therefore, redox couples are related to only the metal centers in complexes[27],[28].
Figure 4 Cyclic voltammogram of complexes c = 4 × 10^–3 mol/dm^3 in H2O medium, KCl (0.1 M) at GCE, scan rate 50 V/s.
Pyridine-2,6-dicarboxylic acid, 4-hydroxy-pyridine-2,6-dicarboxylic acid, 2-aminobenzimidazole, 4-aminopyridine, and thallium(III) nitrate trihydrate were purchased from the commercial sources and were used as received. The solvents were distilled for all synthetic works. Melting points were obtained on an Electrothermal IA-9100 apparatus. The FT-IR spectra were recorded on a Bruker Vector 22 FT-IR spectrometer using KBr pellets. Electronic spectra were recorded on Specord 210, Analytik Jena spectrophotometer in the range of 200–900 nm at room temperature. The ^1HNMR spectra were obtained from Bruker Ultrashield 400 spectrometer. Microanalyses (C, H, N) were measured with a Perkin-Elmer 2004(II) elemental analyzer. Electrochemical experiments were performed using a µAUTOLAB modular electrochemical system (ECO Chemie, Utrecht, the Netherlands) equipped with a PGSTAT type III module driven by GPES software in conjunction with a conventional three-electrode system an Ag/AgCl/3 M KCl and platinum wire as reference and counter electrode respectively and a GC as the working electrode.

procaspase-9 = test: Western blot, procaspase-9 in A375 cells; format: cell-based, human; settings: A375, IC50 concentrations, 24 h, densitometry
Description: as §2

A375 cells [10] = test: Cellular uptake of Tl (ICP-MS), A375; format: cell-based, human; settings: 10 μM, 24 h
Description: A375 cells (1 × 10^7 cells) were treated with 10 μM C1–C3 and Tl(NO3)3.3H2O, respectively, for 24 h at 37 °C, 5% CO2, and 95% air. Cold PBS (phosphate buffer, pH = 7.4) was used for rinsing the cells three times after being collected. Cells were lysed in 1 M NaOH (1 mL) and diluted with 2% (v/v) HNO3 (5 mL) to determine whole-cell thallium content. The amount of thallium taken up by the cells was measured by ICP-MS. The instrument calibrates thallium using a standard solution containing 10, 50, 100, 500, and 1000 ppb thallium. This test was performed as explained on HFF cells treatment to C3[38].

HFF cells [11] = test: Intracellular ROS (H2DCF-DA, flow cytometry), HFF; format: cell-based, human; settings: highest concentration, 24 h, compared with A375
Description: as §4

HFF cells [12] = test: Cell cycle analysis (PI, flow cytometry), HFF; format: cell-based, human; settings: highest concentration, 24 h
Description: as §3

HFF cells [13] = test: Mitochondrial membrane potential assay (JC-1), HFF; format: cell-based, human; settings: highest concentration, JC-1, 24 h
Description: as §5

Compound: O=C(O)c1cccc(C(=O)O)n1 [pydcH2, 2,6-Pyridinedicarboxylic acid]
- IC50 ([1]; Homo sapiens, A-375, 48 h): 442.6 ± 1.22 µM
- IC50 at 48 h [2]: > 500 µM
- IC50 ([3]; Homo sapiens, HT-29, 48 h): 430.2 ± 2.09 µM

Compound: (2-abH)2[Tl(pydc)2(H2O)2]2∙11H2O [C1]
- level of p53 (p53): significantly enhanced
- rise in the cellular population of the G2-M phase (A375 cells [4]): 16.91%
- apoptosis, more effective than vehicle control-treated (A375 cells [5]): 62.24%
- early apoptosis (annexin V+/PI-, Q3) (A375 cells [5]): 14.22%
- late apoptosis (annexin V+/PI+, Q2) (A375 cells [5]): 48.01%
- ROS level (DCF oxidation), more effective than vehicle control-treated (A375 cells [6]): 189.9%
- mitochondrial membrane potential (MMP) in A375 cells (A375 cells [7]): MMP reduction
- Viability inhibition, A375 ([1]; MTT, 48 h): 55.44%
- IC50 ([1]; MTT, 48 h): 81.5 ± 1.02 µM
- ratio of Bax/Bcl-2 (Bax/Bcl-2): 3.60 fold
- IC50 [8]: > 500 µM
- formal potential E0' [9]: 0.109 V
- EA (anodic peak potential) [9]: 0.472 V
- EC (cathodic peak potential) [9]: –0.363 V
- IC50 ([3]; MTT, 48 h): 354.4 ± 0.71 µM
- procaspase-9 level compared to control (procaspase-9): 64.12%

Compound: (2-abH)[Tl(hpydc)2(H2O)2]∙6H2O [C2]
- ROS level (DCF oxidation), more effective than vehicle control-treated (A375 cells [6]): 23.5%
- Viability inhibition, A375 ([1]; MTT, 48 h): 35.28%
- IC50 ([1]; MTT, 48 h): 421.1 ± 0.55 µM
- IC50 [8]: > 500 µM
- formal potential E0' [9]: –0.051 V
- EA (anodic peak potential) [9]: 0.220 V
- EC (cathodic peak potential) [9]: –0.271 V
- IC50 ([3]; MTT, 48 h): 486.2 ± 0.69 µM

Compound: (4-apyH)[Tl(pydc)(pydcH)2]0.5H2O [C3]
- level of p53 (p53): significantly enhanced
- permeation in A375 cells relative to normal (HFF) cells (A375 cells [10]): almost two times more than normal cells
- rise in the cellular population of the G2-M phase (A375 cells [4]): 21.10%
- production of ROS in HFF cells (HFF cells [11]): much less than what was produced in cancer cells of A375
- effect on cell cycle distribution in HFF cells (HFF cells [12]): does not have a remarkable effect on the cellular population in none of the phases
- apoptosis, more effective than vehicle control-treated (A375 cells [5]): 61.66%
- early apoptosis (annexin V+/PI-, Q3) (A375 cells [5]): 11.47%
- late apoptosis (annexin V+/PI+, Q2) (A375 cells [5]): 50.19%
- ROS level (DCF oxidation), more effective than vehicle control-treated (A375 cells [6]): 229.4%
- mitochondrial membrane potential (MMP) in A375 cells (A375 cells [7]): MMP reduction
- Viability inhibition, A375 ([1]; MTT, 48 h): 69.62%
- IC50 ([1]; MTT, 48 h): 7.23 ± 0.93 µM
- ratio of Bax/Bcl-2 (Bax/Bcl-2): 5.25 fold
- IC50 [8]: > 500 µM
- changes in MMP of HFF cells (HFF cells [13]): insignificant changes
- formal potential E0' [9]: 0.244 V
- EA (anodic peak potential) [9]: 0.581 V
- EC (cathodic peak potential) [9]: –0.337 V
- Viability inhibition, HT29 ([3]; MTT, 48 h, concentration not given): 53.12%
- IC50 ([3]; MTT, 48 h): 193.2 ± 1.12 µM
- procaspase-9 level compared to control (procaspase-9): 110.97%
